Literature values in patent US20230009337A1, “Liberty Vitamins and Drinks” (priority 2021, published 2023).

Key:
TWIK2 potassium channels = molecular target: T1, TWIK2 potassium channels (Homo sapiens, UniProt Q9Y257); details: macrophage white blood cell; discovered by Dr. Jalees Rehman and Professor Asrar Malik, University of Illinois in Chicago
T1 construct: host or cells: macrophage white blood cell (as described in the diagram)
T1 sequence (Q9Y257 1-313): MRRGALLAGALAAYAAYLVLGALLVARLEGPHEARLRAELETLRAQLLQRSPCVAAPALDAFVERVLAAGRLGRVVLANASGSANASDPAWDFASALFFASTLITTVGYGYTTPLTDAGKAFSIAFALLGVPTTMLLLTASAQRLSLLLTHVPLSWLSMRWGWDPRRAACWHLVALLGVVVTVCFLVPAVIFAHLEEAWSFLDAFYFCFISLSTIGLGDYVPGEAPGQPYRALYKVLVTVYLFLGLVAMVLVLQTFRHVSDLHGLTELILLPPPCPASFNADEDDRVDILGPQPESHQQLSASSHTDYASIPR

mice = details: acetone/olive oil placed on the mice for 4 weeks

C=C[C@H]1C[N@@]2CC[C@H]1C[C@H]2[C@H](O)c1ccnc2ccc(OC)cc12 [Quinine]
inhibition of TWIK2 channels (TWIK2 potassium channels): can inhibit | loss of skin and flesh (skin inflammation) (mice): did not have a loss of skin and flesh
